Experimental data from patent publication US10472341B2, “Bicyclic tetrahydrothiazepine derivatives useful for the treatment of neoplastic and/or infectious diseases” (APEIRON BIOLOGICS AG, priority 2015, dated 2019).
Like-named read-outs stand apart in the source and are kept apart here.

Experiments:
[1] = tested on: aCD3/aCD28-stimulated human PBMCs; test: Cytokine production in aCD3/aCD28 stimulated human PBMCs; type: cell-based; conditions: PBMC, 18 h
Experimental: In order to determine the immune modulatory effect of compounds of compounds of the present invention in human PBMCs, compounds were assessed in the following assay set-up:
Buffy coats were obtained from a local hospital, diluted 3 fold with PBS and layered onto an isotonic Ficoll separating solution d=1.077 g/mL in 50 mL centrifuge tubes. The tubes were centrifuged at 914 g for 25 min at room temperature with the brakes off. The PBMC layer was removed and washed twice with ice-cold PBS. Erythrocytes were lysed by addition of ddH2O and cells were resuspended in X-Vivo15 (Lonza).
1e6 cells/mL were stimulated with soluble anti CD3/CD28 antibodies (1 μg/mL both, clones OKT3 and 28.2) in the presence of described compounds. Cells were incubated for 18 h at 37° C., 5% CO2. Assay plates were centrifuged at 400 g for 5 min and supernatants harvested. Cytokine concentration in tissue culture supernatants were determined with MSD or HTRF kits (MSD and Cisbio), according to manufacturer's instructions.

[2] = tested on: aCD3/aCD28-stimulated human CD4+-T-cells; test: IL-2 production and activation markers in aCD3/aCD28 stimulated isolated human CD4+-T-cells; type: cell-based; conditions: IL-2 production at 3 μM compound
Experimental: • Buffy coat content was transferred to sterile plastic bottle and filled up to 480 ml with PBS, and distributed equally to 16×50 ml tubes (30 ml/tube) • Underlayed with ˜11 ml Lymphoprep and centrifuged 20 min (2200 rpm) • The interphase containing lymphocytes was taken off with transfer pipette, cells were washed twice with PBS and pooled to one tube to determine cell count (Coulter Diff ACT) Isolation of Immune Cell Subfractions from PBMCs by MACS • PBMCs were resuspended in MACS buffer (80 μl MACS-buffer/10^7 cells) and cells were isolated with Auto-MACS device using respective kits following manufacturer's recommendations TCR Stimulation and Measurement of T Cell Activation
Isolated T cells were plated in Xvivo medium at 1.5*10 ^5 cells per in 96 well culture plates and TCR-stimulated with anti-CD3/28 mAbs in the presence of compound as indicated. Cytokine production was determined at 24 h or 48 h following TCR stimulation in cell culture supernatants using commercially available ELISA kits (BD and eBioscience) as recommended by the manufacturer. T cell proliferation and CD25 expression (CD25-PC5 reagent purchased from Beckman Coulter) was determined by flow cytometry (Beckman-Coulter FC500) and analysed with Kaluza Software. For measurement of CD69 expression, isolated CD4 and CD8 T cells were plated in Xvivo medium at […] per in 96 well culture plates and TCR-stimulated with anti-CD3/28 mAbs in the presence of compound. CD69 expression was determined at 24 h following TCR stimulation by flow cytometry (CD4eF450, CD8APCeF780 and CD69-PC7 reagent purchased from eBioscience) and analysed with Kaluza Software.
Buffy coats were obtained from Austrian Red Cross, diluted 3 fold with PBS and layered onto an isotonic Ficoll separating solution d=1.077 g/m in 50 ml centrifuge tubes. The tubes were centrifuged at 914 g for 25 min at room temperature with the brakes off. The PBMC layer was removed and washed twice with ice-cold PBS. CD4 T cells were isolated using CD4 microbeads (Milteny) and the AutoMACS device following manufacturer's instructions.
Compound examples of the present invention were classified according to the following activity criteria and are listed in Table 4a: • Activity Class A: IL-2 production at 3 μM compound concentration >10 ng/mL • Activity Class B: IL-2 production at 3 μM compound concentration between 2-10 ng/mL • Activity Class C: IL-2 production at 3 μM compound concentration between 2-fold increase as compared to mean IL-2 production of stimulated cells in the absence of compounds and <2 ng/mL

[3] = enhancement of IFN-γ production, read-out: Activity Class IFN-γ
[4] = enhancement of IL-2 production, read-out: Activity Class IL-2

Row | SMILES | EC50 [1, 3] | EC50 [1, 4] | Activity Class CD4+ [2]
1 | CCCCNC(=O)c1ccc2c(c1)N(Cc1ccc(C(C)(C)C)cc1)C(=O)[C@@H](N)CS2.Cl [Example 2, (3R)-3-amino-N-butyl-5-[(4-tert-butylphenyl)methyl]-4-oxo-2,3,4,5-tetrahydro-1,5-benzothiazepine-7-carboxamide hydrochloride] | < 1.58 µM | 1.58 to 5.01 µM | B (IL-2 production at 3 μM compound concentration between 2-10 ng/mL)
2 | CCCCNC(=O)c1ccc2c(c1)N(Cc1ccc(OC(F)(F)F)cc1)C(=O)[C@@H](N)CS2.Cl [Example 3, (3R)-3-amino-N-butyl-4-oxo-5-{[4-(trifluoromethoxy)phenyl]methyl}-2,3,4,5-tetrahydro-1,5-benzothiazepine-7-carboxamide hydrochloride] | 1.58 to 5.01 µM | 1.58 to 5.01 µM | B (IL-2 production at 3 μM compound concentration between 2-10 ng/mL)
3 | CC(C)NC(=O)c1ccc2c(c1)N(Cc1ccc(C(C)(C)C)cc1)C(=O)[C@@H](N)CS2.Cl [Example 4, (3R)-3-amino-5-[(4-tert-butylphenyl)methyl]-4-oxo-N-(propan-2-yl)-2,3,4,5-tetrahydro-1,5-benzothiazepine-7-carboxamide hydrochloride] | > 5.01 µM | 1.58 to 5.01 µM | C (IL-2 production at 3 μM compound concentration between 2-fold increase as compared to mean IL-2 production of stimulated cells in the absence of compounds and <2 ng/mL)
4 | CCCCNC(=O)c1cc2c(cc1F)SC[C@H](N)C(=O)N2Cc1ccc(OC(F)(F)F)cc1.Cl [Example 5, (3R)-3-amino-N-butyl-8-fluoro-4-oxo-5-{[4-(trifluoromethoxy)phenyl]methyl}-2,3,4,5-tetrahydro-1,5-benzothiazepine-7-carboxamide hydrochloride] | 1.58 to 5.01 µM | > 5.01 µM | B (IL-2 production at 3 μM compound concentration between 2-10 ng/mL)
5 | Cl.N[C@H]1CSc2ccc(C(=O)NCc3ccccc3)cc2N(Cc2ccc(OC(F)(F)F)cc2)C1=O [Example 6, (3R)-3-amino-N-benzyl-4-oxo-5-{[4-(trifluoromethoxy)phenyl]methyl}-2,3,4,5-tetrahydro-1,5-benzothiazepine-7-carboxamide hydrochloride] | < 1.58 µM | 1.58 to 5.01 µM | B (IL-2 production at 3 μM compound concentration between 2-10 ng/mL)
6 | COc1ccc(CNC(=O)c2ccc3c(c2)N(Cc2ccc(OC(F)(F)F)cc2)C(=O)[C@@H](N)CS3)cc1.Cl [Example 7, (3R)-3-amino-N-[(4-methoxyphenyl)methyl]-4-oxo-5-{[4-(trifluoromethoxy)-phenyl]methyl}-2,3,4,5-tetrahydro-1,5-benzothiazepine-7-carboxamide hydrochloride] | < 1.58 µM | 1.58 to 5.01 µM | B (IL-2 production at 3 μM compound concentration between 2-10 ng/mL)
7 | CC(C)CONC(=O)c1ccc2c(c1)N(Cc1ccc(Cl)cc1)C(=O)[C@@H](N)CS2.Cl [Example 62, (3R)-3-amino-5-[(4-chlorophenyl)methyl]-N-(2-methylpropoxy)-4-oxo-2,3,4,5-tetrahydro-1,5-benzothiazepine-7-carboxamide hydrochloride] |  |  | C (IL-2 production at 3 μM compound concentration between 2-fold increase as compared to mean IL-2 production of stimulated cells in the absence of compounds and <2 ng/mL)
8 | Cl.N[C@H]1CS(=O)(=O)c2cc(F)c(C(=O)NOc3ccccc3)cc2N(Cc2ccc(Cl)cc2)C1=O [Example 76, (3R)-3-amino-5-[(4-chlorophenyl)methyl]-8-fluoro-1,1,4-trioxo-N-phenoxy-2,3,4,5-tetrahydro-1λ^6,5-benzothiazepine-7-carboxamide hydrochloride] |  |  | C (IL-2 production at 3 μM compound concentration between 2-fold increase as compared to mean IL-2 production of stimulated cells in the absence of compounds and <2 ng/mL)
9 | CC(C)CONC(=O)c1ccc2c(c1)N(Cc1ccc(Cl)cc1)C(=O)[C@@H](N)CS2(=O)=O.Cl [Example 81, (3R)-3-amino-5-[(4-chlorophenyl)methyl]-N-(2-methylpropoxy)-1,1,4-trioxo-2,3,4,5-tetrahydro-1λ^6,5-benzothiazepine-7-carboxamide hydrochloride] |  |  | C (IL-2 production at 3 μM compound concentration between 2-fold increase as compared to mean IL-2 production of stimulated cells in the absence of compounds and <2 ng/mL)
10 | CCCONC(=O)c1ccc2c(c1)N(Cc1ccc(Cl)cc1)C(=O)[C@@H](N)CS2(=O)=O.Cl [Example 82, (3R)-3-amino-5-[(4-chlorophenyl)methyl]-1,1,4-trioxo-N-propoxy-2,3,4,5-tetrahydro-1λ^6,5-benzothiazepine-7-carboxamide hydrochloride] |  |  | C (IL-2 production at 3 μM compound concentration between 2-fold increase as compared to mean IL-2 production of stimulated cells in the absence of compounds and <2 ng/mL)
11 | Cl.N[C@H]1CS(=O)(=O)c2ccc(C(=O)NOC3CCCCC3)cc2N(Cc2ccc(Cl)cc2)C1=O [Example 90, (3R)-3-amino-5-[(4-chlorophenyl)methyl]-N-(cyclohexyloxy)-1,1,4-trioxo-2,3,4,5-tetrahydro-1λ^6,5-benzothiazepine-7-carboxamide hydrochloride] |  |  | A (IL-2 production at 3 μM compound concentration >10 ng/mL)
12 | Cl.N[C@H]1CS(=O)(=O)c2ccc(C(=O)NOCC3CCCCC3)cc2N(Cc2ccc(Cl)cc2)C1=O [Example 91, (3R)-3-amino-5-[(4-chlorophenyl)methyl]-N-(cyclohexylmethoxy)-1,1,4-trioxo-2,3,4,5-tetrahydro-1λ^6,5-benzothiazepine-7-carboxamide hydrochloride] |  |  | B (IL-2 production at 3 μM compound concentration between 2-10 ng/mL)
13 | CC(C)(C)ONC(=O)c1ccc2c(c1)N(Cc1ccc(Cl)cc1)C(=O)[C@@H](N)CS2(=O)=O.Cl [Example 97, (3R)-3-amino-N-(tert-butoxy)-5-[(4-chlorophenyl)methyl]-1,1,4-trioxo-2,3,4,5-tetrahydro-1λ^6,5-benzothiazepine-7-carboxamide hydrochloride] |  |  | C (IL-2 production at 3 μM compound concentration between 2-fold increase as compared to mean IL-2 production of stimulated cells in the absence of compounds and <2 ng/mL)
14 | CCCCNC(=O)c1cc2c(cc1F)SC[C@H](N)C(=O)N2Cc1ccc2ccccc2n1.Cl.Cl [Example 112, (3R)-3-amino-N-butyl-8-fluoro-4-oxo-5-(quinolin-2-ylmethyl)-2,3,4,5-tetrahydro-1,5-benzothiazepine-7-carboxamide dihydrochloride] |  |  | C (IL-2 production at 3 μM compound concentration between 2-fold increase as compared to mean IL-2 production of stimulated cells in the absence of compounds and <2 ng/mL)
15 | COc1ccc(CNC(=O)c2cc3c(cc2F)SC[C@H](NCCCCCNC(=O)OC(C)(C)C)C(=O)N3Cc2ccc(Cl)cc2)cc1 [Example 115, tert-butyl N-(5-{[(3R)-5-[(4-chlorophenyl)methyl]-8-fluoro-7-{[(4-methoxyphenyl)methyl]carbamoyl}-4-oxo-2,3,4,5-tetrahydro-1,5-benzothiazepin-3-yl]amino}pentyl)carbamate] |  |  | C (IL-2 production at 3 μM compound concentration between 2-fold increase as compared to mean IL-2 production of stimulated cells in the absence of compounds and <2 ng/mL)
